Test in all cases: cell-based
One assay deals with hNav1.3 (Homo sapiens, UniProt Q9NY46). The note with it: IonWorks Quattro, use-dependent block, hNav1.3; read-out: IWQ Use Nav1.3.
In the next assay the target is hNav1.7 (Homo sapiens, UniProt Q15858). It is filed as cell-based.
Another assay addresses hNav1.5 (Homo sapiens, UniProt Q14524).
Where [1] appears, read: IonWorks Quattro, use-dependent block, hNav1.7, read-out: IWQ Use Nav1.7.
[2] abbreviates: IonWorks Quattro, use-dependent block, hNav1.5, read-out: IWQ Use Nav1.5.

The structures appear in SMILES notation. Like-named read-outs stand apart in the source and are kept apart here. Positions of bridges follow the written chain, without caps; N, C: chain ends. Non-standard residues stand in square brackets, D forms with d. Residues, ends and D or L forms follow the SMILES beside them. 1Nal = N[C@@H](Cc1cccc2ccccc12)C(=O)O

Chain of hNav1.5 (Q14524 whole entry, looked up): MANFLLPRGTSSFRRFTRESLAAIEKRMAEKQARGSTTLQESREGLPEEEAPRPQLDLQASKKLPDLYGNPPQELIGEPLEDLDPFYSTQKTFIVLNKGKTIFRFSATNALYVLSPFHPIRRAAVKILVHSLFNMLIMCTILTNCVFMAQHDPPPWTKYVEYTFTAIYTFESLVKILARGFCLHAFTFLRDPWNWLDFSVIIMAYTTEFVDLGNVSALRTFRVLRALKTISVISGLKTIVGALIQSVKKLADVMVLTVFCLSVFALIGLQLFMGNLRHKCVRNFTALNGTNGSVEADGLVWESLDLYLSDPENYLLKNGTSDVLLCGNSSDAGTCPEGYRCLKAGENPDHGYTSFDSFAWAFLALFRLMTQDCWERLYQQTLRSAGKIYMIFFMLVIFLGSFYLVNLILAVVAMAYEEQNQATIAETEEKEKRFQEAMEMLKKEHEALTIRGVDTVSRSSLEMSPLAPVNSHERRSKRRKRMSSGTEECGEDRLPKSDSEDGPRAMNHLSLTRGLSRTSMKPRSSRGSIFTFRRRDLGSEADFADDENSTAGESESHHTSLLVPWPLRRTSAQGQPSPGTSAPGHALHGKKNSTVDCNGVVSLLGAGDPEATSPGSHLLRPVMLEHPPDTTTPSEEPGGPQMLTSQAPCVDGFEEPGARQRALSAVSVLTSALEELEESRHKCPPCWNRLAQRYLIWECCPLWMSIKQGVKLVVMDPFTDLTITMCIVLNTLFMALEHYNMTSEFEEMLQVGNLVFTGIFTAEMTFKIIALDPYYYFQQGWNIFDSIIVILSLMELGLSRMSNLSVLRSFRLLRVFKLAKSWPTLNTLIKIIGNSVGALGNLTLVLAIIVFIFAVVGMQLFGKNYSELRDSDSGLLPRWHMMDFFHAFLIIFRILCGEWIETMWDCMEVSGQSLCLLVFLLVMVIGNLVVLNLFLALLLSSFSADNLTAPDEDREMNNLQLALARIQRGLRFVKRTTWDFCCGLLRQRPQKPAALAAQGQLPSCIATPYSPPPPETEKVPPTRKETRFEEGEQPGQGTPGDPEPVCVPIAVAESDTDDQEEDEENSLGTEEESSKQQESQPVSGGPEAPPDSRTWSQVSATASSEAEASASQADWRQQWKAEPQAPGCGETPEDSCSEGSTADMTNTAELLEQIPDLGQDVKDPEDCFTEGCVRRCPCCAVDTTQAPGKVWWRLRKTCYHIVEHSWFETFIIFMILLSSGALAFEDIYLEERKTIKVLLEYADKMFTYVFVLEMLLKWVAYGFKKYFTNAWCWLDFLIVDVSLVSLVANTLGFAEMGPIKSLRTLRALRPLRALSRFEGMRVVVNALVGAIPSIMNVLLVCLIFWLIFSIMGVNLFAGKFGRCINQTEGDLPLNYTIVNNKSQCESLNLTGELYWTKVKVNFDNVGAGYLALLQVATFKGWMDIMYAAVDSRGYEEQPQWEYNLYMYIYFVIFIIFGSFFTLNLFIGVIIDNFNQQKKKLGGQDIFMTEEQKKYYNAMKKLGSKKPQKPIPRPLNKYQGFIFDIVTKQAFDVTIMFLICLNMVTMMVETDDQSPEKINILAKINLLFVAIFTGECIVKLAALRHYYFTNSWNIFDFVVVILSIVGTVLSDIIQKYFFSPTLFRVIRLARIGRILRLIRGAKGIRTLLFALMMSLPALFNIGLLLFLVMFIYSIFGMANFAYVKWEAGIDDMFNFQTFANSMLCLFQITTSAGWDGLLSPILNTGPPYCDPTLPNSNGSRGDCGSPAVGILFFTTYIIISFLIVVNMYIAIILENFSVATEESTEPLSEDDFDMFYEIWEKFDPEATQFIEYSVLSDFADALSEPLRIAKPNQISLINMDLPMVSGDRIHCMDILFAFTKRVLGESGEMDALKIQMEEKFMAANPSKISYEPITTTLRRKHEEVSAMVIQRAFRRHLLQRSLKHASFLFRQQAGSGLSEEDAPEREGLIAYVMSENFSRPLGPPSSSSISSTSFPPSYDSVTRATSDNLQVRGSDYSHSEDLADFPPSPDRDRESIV
Chain of hNav1.3 (Q9NY46 whole entry, looked up): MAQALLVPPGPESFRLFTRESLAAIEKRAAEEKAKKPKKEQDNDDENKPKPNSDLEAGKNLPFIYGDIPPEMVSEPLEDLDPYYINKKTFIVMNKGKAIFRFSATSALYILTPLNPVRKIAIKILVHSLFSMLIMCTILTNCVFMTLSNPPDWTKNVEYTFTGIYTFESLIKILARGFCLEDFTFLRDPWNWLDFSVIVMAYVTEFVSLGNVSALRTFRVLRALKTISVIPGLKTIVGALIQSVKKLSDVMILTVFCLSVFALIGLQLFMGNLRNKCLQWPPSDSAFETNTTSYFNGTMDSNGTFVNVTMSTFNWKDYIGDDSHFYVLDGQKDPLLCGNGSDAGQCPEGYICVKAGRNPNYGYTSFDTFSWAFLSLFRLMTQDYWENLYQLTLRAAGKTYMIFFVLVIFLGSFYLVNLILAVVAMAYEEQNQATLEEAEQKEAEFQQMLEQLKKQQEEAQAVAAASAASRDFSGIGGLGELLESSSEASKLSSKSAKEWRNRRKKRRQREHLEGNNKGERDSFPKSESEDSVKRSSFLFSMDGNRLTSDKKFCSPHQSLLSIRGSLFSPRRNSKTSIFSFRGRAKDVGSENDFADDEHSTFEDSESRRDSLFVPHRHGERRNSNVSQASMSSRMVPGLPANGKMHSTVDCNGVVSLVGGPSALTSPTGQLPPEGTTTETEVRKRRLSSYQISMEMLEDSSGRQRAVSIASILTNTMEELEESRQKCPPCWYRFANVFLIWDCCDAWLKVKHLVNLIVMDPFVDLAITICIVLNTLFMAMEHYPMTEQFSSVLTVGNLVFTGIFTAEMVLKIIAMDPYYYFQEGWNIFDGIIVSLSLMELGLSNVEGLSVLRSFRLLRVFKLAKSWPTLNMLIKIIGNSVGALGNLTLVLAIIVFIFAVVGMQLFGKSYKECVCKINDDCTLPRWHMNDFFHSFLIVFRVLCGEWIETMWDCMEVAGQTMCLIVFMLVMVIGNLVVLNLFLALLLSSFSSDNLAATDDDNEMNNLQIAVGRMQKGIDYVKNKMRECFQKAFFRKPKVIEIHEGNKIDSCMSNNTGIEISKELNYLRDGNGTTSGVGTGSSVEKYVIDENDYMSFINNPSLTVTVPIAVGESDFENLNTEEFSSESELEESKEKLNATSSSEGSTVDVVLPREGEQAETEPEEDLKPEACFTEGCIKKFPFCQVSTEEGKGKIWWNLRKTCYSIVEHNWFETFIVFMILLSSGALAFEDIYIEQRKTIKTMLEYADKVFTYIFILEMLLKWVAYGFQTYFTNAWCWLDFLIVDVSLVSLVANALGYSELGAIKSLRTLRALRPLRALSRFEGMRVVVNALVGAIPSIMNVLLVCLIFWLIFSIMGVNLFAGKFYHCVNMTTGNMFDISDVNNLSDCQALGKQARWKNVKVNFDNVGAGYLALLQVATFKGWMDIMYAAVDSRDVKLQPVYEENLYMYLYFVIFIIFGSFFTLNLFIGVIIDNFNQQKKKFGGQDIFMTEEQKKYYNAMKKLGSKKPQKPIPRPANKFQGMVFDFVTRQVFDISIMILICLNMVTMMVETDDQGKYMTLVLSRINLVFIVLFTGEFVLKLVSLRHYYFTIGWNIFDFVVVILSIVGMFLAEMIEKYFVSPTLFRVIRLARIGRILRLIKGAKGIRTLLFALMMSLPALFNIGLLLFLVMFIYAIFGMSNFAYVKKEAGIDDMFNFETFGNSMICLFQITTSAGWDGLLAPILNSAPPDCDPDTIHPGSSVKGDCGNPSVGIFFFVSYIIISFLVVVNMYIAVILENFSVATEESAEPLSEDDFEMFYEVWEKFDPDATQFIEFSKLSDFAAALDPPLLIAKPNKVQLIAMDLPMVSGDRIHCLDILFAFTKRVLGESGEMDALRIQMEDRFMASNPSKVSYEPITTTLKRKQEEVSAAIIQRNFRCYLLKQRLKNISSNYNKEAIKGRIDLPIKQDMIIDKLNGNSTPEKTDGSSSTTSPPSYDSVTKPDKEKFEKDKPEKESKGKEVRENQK

For the molecule `CC[C@H](C)[C@@H]1NC(=O)[C@@H]2CSSC[C@@H]3NC(=O)[C@H](C(C)C)NC(=O)[C@H](CC(C)C)NC(=O)[C@H](CC(N)=O)NC(=O)[C@@H]4CCCN4C(=O)[C@H](CCCNC(=N)N)NC(=O)[C@H](CSSC[C@H](NC(=O)[C@@H](N)CC(=O)O)C(=O)N[C@@H](CC(C)C)C(=O)NCC(=O)N[C@@H](C)C(=O)N[C@@H](CCSC)C(=O)N[C@@H](CCCNC(=N)N)C(=O)N[C@@H](CCCCN)C(=O)N2)NC(=O)[C@H](CSSC[C@@H](C(=O)N[C@@H](CCCCN)C(=O)N[C@@H](Cc2cccc4ccccc24)C(=O)N[C@H](C(=O)N[C@@H](Cc2ccccc2)C(N)=O)C(C)C)NC(=O)[C@H](Cc2c[nH]c4ccccc24)NC(=O)[C@H](CCCCN)NC(=O)[C@H](Cc2c[nH]cn2)NC(=O)[C@H]([C@@H](C)O)NC(=O)[C@H](CCCNC(=N)N)NC(=O)[C@H](CO)NC3=O)NC(=O)[C@H](CCCCN)NC(=O)[C@H](CC(=O)O)NC(=O)[C@H](CC(N)=O)NC(=O)[C@H](CC(=O)O)NC(=O)[C@@H]2CCCN2C1=O` [compound 254] (H-DCLGAMRKCIPDNDKCCRPNLVCSRTHKWCK[1Nal]VF-NH2; disulfide 2-17, 9-23, 16-30), the values for the IC50 on hNav1.3, on hNav1.7 (setting [1]) and on hNav1.5 (setting [2]) were 200 nM, 60 nM and 5 µM, respectively.

In the case of `CC[C@H](C)[C@@H]1NC(=O)[C@@H]2CSSC[C@@H]3NC(=O)[C@H](C(C)C)NC(=O)[C@H](CC(C)C)NC(=O)[C@H](CC(N)=O)NC(=O)[C@@H]4CCCN4C(=O)[C@H](CCCNC(=N)N)NC(=O)[C@H](CSSC[C@H](NC(=O)[C@@H](N)CC(=O)O)C(=O)N[C@@H](CC(C)C)C(=O)NCC(=O)N[C@@H](C)C(=O)N[C@@H](CCSC)C(=O)N[C@@H](CCCNC(=N)N)C(=O)N[C@@H](CCCCN)C(=O)N2)NC(=O)[C@H](CSSC[C@@H](C(=O)N[C@@H](CCCCN)C(=O)N[C@@H](Cc2ccc(O)cc2)C(=O)N[C@H](C(=O)N[C@@H](Cc2ccccc2)C(N)=O)C(C)C)NC(=O)[C@H](Cc2c[nH]c4ccccc24)NC(=O)[C@H](CCCCN)NC(=O)[C@H](Cc2cnc[nH]2)NC(=O)[C@H](CC(C)C)NC(=O)[C@H](CCCNC(=N)N)NC(=O)[C@H](CO)NC3=O)NC(=O)[C@H](CCCCN)NC(=O)[C@H](CC(=O)O)NC(=O)[C@H](CC(N)=O)NC(=O)[C@H](CC(=O)O)NC(=O)[C@@H]2CCCN2C1=O` [compound 255] (H-DCLGAMRKCIPDNDKCCRPNLVCSRLHKWCKYVF-NH2; disulfide 2-17, 9-23, 16-30), the IC50 came out at 680 nM on hNav1.3, 280 nM on hNav1.7 (setting [1]) and 5 µM on hNav1.5 (IWQ Use Nav1.5 (μM)).

As to `CC[C@H](C)[C@@H]1NC(=O)[C@@H]2CSSC[C@@H]3NC(=O)[C@H](C(C)C)NC(=O)[C@H](CC(C)C)NC(=O)[C@H](CC(N)=O)NC(=O)[C@@H]4CCCN4C(=O)[C@H](CCCNC(=N)N)NC(=O)[C@H](CSSC[C@H](NC(=O)[C@@H](N)CC(=O)O)C(=O)N[C@@H](CC(C)C)C(=O)NCC(=O)N[C@@H](C)C(=O)N[C@@H](Cc4cccc5ccccc45)C(=O)N[C@@H](CCCNC(=N)N)C(=O)N[C@@H](CCCCN)C(=O)N2)NC(=O)[C@H](CSSC[C@@H](C(=O)N[C@@H](CCCCN)C(=O)N[C@@H](Cc2ccc(O)cc2)C(=O)N[C@H](C(=O)N[C@@H](Cc2ccccc2)C(N)=O)C(C)C)NC(=O)[C@H](Cc2c[nH]c4ccccc24)NC(=O)[C@H](CCCCN)NC(=O)[C@H](Cc2cnc[nH]2)NC(=O)[C@H]([C@@H](C)O)NC(=O)[C@H](CCCNC(=N)N)NC(=O)[C@H](CO)NC3=O)NC(=O)[C@H](CCCCN)NC(=O)[C@H](CC(=O)O)NC(=O)[C@H](CC(N)=O)NC(=O)[C@H](CC(=O)O)NC(=O)[C@@H]2CCCN2C1=O` [compound 256], the figures for the IC50 on hNav1.3, at hNav1.7 (setting [1]) and at hNav1.5 (setting [2]) were 60 nM, 100 nM and 5 µM, respectively.

Take `CC[C@H](C)[C@@H]1NC(=O)[C@@H]2CSSC[C@@H]3NC(=O)[C@H](C(C)C)NC(=O)[C@H](CC(C)C)NC(=O)[C@H](CC(N)=O)NC(=O)[C@@H]4CCCN4C(=O)[C@H](CCCNC(=N)N)NC(=O)[C@H](CSSC[C@H](NC(=O)[C@@H](N)CC(=O)O)C(=O)N[C@@H](CC(C)C)C(=O)NCC(=O)N[C@@H](C)C(=O)N[C@@H](CCSC)C(=O)N[C@@H](CCCNC(=N)N)C(=O)N[C@@H](CCCCN)C(=O)N2)NC(=O)[C@H](CSSC[C@@H](C(=O)N[C@@H](CCCCN)C(=O)N[C@@H](Cc2ccc(O)cc2)C(=O)N[C@@H](Cc2cccc4ccccc24)C(=O)N[C@@H](Cc2ccccc2)C(N)=O)NC(=O)[C@H](Cc2c[nH]c4ccccc24)NC(=O)[C@H](CCCCN)NC(=O)[C@H](Cc2c[nH]cn2)NC(=O)[C@H]([C@@H](C)O)NC(=O)[C@H](CCCNC(=N)N)NC(=O)[C@H](CO)NC3=O)NC(=O)[C@H](CCCCN)NC(=O)[C@H](CC(=O)O)NC(=O)[C@H](CC(N)=O)NC(=O)[C@H](CC(=O)O)NC(=O)[C@@H]2CCCN2C1=O` [compound 258] (H-DCLGAMRKCIPDNDKCCRPNLVCSRTHKWCKY[1Nal]F-NH2; disulfide 2-17, 9-23, 16-30): the IC50 at hNav1.3 worked out at 800 nM; on hNav1.7 (setting [1]) it was 380 nM; at hNav1.5 (IWQ Use Nav1.5 (μM)), 5 µM.

With `CC[C@H](C)[C@@H]1NC(=O)[C@@H]2CSSC[C@@H]3NC(=O)[C@H](C(C)C)NC(=O)[C@H](CC(C)C)NC(=O)[C@H](CC(N)=O)NC(=O)[C@@H]4CCCN4C(=O)[C@H](CCCNC(=N)N)NC(=O)[C@H](CSSC[C@H](NC(=O)[C@@H](N)CC(=O)O)C(=O)N[C@@H](CC(C)C)C(=O)NCC(=O)N[C@@H](C)C(=O)N[C@@H](CCSC)C(=O)N[C@@H](CCCNC(=N)N)C(=O)N[C@@H](CCCCN)C(=O)N2)NC(=O)[C@H](CSSC[C@@H](C(=O)N[C@@H](CCCCN)C(=O)N[C@@H](Cc2ccc(O)cc2)C(=O)N[C@H](C(=O)N[C@@H](Cc2ccccc2)C(N)=O)C(C)C)NC(=O)[C@H](Cc2c[nH]c4ccccc24)NC(=O)[C@H](CCCNC(=N)N)NC(=O)[C@H](Cc2c[nH]cn2)NC(=O)[C@H]([C@@H](C)O)NC(=O)[C@H](CCCNC(=N)N)NC(=O)[C@H](CO)NC3=O)NC(=O)[C@H](CCCCN)NC(=O)[C@H](CC(=O)O)NC(=O)[C@H](CC(N)=O)NC(=O)[C@H](CC(=O)O)NC(=O)[C@@H]2CCCN2C1=O` [compound 260] (H-DCLGAMRKCIPDNDKCCRPNLVCSRTHRWCKYVF-NH2; disulfide 2-17, 9-23, 16-30), the IC50 on hNav1.3 was 240 nM; at hNav1.7 (setting [1]) it was 330 nM; at hNav1.5 (setting [2]) it was 5 µM.

For the molecule `CC[C@H](C)[C@@H]1NC(=O)[C@@H]2CSSC[C@@H]3NC(=O)[C@H](C(C)C)NC(=O)[C@H](CC(C)C)NC(=O)[C@H](CC(N)=O)NC(=O)[C@@H]4CCCN4C(=O)[C@H](CCCNC(=N)N)NC(=O)[C@H](CSSC[C@H](NC(=O)[C@@H](N)CC(=O)O)C(=O)N[C@@H](CC(C)C)C(=O)NCC(=O)N[C@@H](C)C(=O)N[C@@H](Cc4c[nH]c5ccccc45)C(=O)N[C@@H](CCCNC(=N)N)C(=O)N[C@@H](CCCCN)C(=O)N2)NC(=O)[C@H](CSSC[C@@H](C(=O)N[C@@H](CCCCN)C(=O)N[C@@H](Cc2ccc(O)cc2)C(=O)N[C@H](C(=O)N[C@@H](Cc2ccccc2)C(N)=O)C(C)C)NC(=O)[C@H](Cc2c[nH]c4ccccc24)NC(=O)[C@H](CCCCN)NC(=O)[C@H](Cc2cnc[nH]2)NC(=O)[C@H]([C@@H](C)O)NC(=O)[C@H](CCCNC(=N)N)NC(=O)[C@H](CO)NC3=O)NC(=O)[C@H](CCCCN)NC(=O)[C@H](CC(=O)O)NC(=O)[C@H](CC(N)=O)NC(=O)[C@H](CC(=O)O)NC(=O)[C@@H]2CCCN2C1=O` [compound 261] (H-DCLGAWRKCIPDNDKCCRPNLVCSRTHKWCKYVF-NH2; disulfide 2-17, 9-23, 16-30), the IC50 at hNav1.3 worked out at 670 nM; against hNav1.7, 1010 nM; on hNav1.5 (setting [2]), 5 µM.

As for `CC[C@H](C)[C@@H]1NC(=O)[C@@H]2CSSC[C@@H]3NC(=O)[C@H](C(C)C)NC(=O)[C@H](CC(C)C)NC(=O)[C@H](CC(N)=O)NC(=O)[C@@H]4CCCN4C(=O)[C@H](CCCNC(=N)N)NC(=O)[C@H](CSSC[C@H](NC(=O)[C@@H](N)CC(=O)O)C(=O)N[C@@H](CC(C)C)C(=O)NCC(=O)N[C@@H](C)C(=O)N[C@@H](Cc4ccccc4)C(=O)N[C@@H](CCCNC(=N)N)C(=O)N[C@@H](CCCCN)C(=O)N2)NC(=O)[C@H](CSSC[C@@H](C(=O)N[C@@H](CCCCN)C(=O)N[C@@H](Cc2ccc(O)cc2)C(=O)N[C@H](C(=O)N[C@@H](Cc2ccccc2)C(N)=O)C(C)C)NC(=O)[C@H](Cc2c[nH]c4ccccc24)NC(=O)[C@H](CCCCN)NC(=O)[C@H](Cc2cnc[nH]2)NC(=O)[C@H](CC(C)C)NC(=O)[C@H](CCCNC(=N)N)NC(=O)[C@H](CO)NC3=O)NC(=O)[C@H](CCCCN)NC(=O)[C@H](CC(=O)O)NC(=O)[C@H](CC(N)=O)NC(=O)[C@H](CC(=O)O)NC(=O)[C@@H]2CCCN2C1=O` [compound 263] (H-DCLGAFRKCIPDNDKCCRPNLVCSRLHKWCKYVF-NH2; disulfide 2-17, 9-23, 16-30), the IC50 was found to be 50 nM on hNav1.3, 80 nM at hNav1.7 (setting [1]) and 5 µM at hNav1.5 (IWQ Use Nav1.5 (μM)).
